Test results as given in patent publication US20230085307A1, “PYRIDAZINONE COMPOUND AND HERBICIDE” (NISSAN CHEMICAL CORPORATION, priority 2019, published 2023).

Columns and labels:
[1] = test system: lambsquarters; assay: Test Example 4: herbicidal effect by soil treatment (Table 19, symbol O); assay type: in vivo, lambsquarters (Chenopodium album); settings: amount of applied herbicide 320 g/ha
Procedure, shortened: (§1)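 Pre-emergence style soil spray: seeds under ~1.5 cm sterilized diluvial soil received a uniform coat of emulsion diluted to the predetermined herbicide amount. Greenhouse 25–30° C; readout at week three on previously defined criteria.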

[2] = test system: barnyard grass; assay: Test Example 4: herbicidal effect by soil treatment (Table 19, symbol H); assay type: in vivo, barnyard grass (Echinochloa crus-galli); settings: amount of applied herbicide 320 g/ha
Procedure, shortened: as §1

[3] = test system: wild oat; assay: Test Example 4: herbicidal effect by soil treatment (Table 19, symbol I); assay type: in vivo, wild oat (Avena fatua); settings: amount of applied herbicide 320 g/ha
Procedure, shortened: as §1

[4] = test system: persian speedwell; assay: Test Example 5: herbicidal effect by foliage application, plastic box (Table 20, symbol R); assay type: in vivo, Persian speedwell (Veronica persica); settings: foliage application, 320 g/ha, three weeks after application
Procedure, shortened: (§2)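 Plants were sown into sterilized diluvial soil under about 1.5 cm cover and kept in a greenhouse at 25° C. to 30° C. Fourteen days on, foliage received an even spray of the diluted emulsion. Herbicidal or crop effect was judged three weeks afterwards.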

[5] = test system: green foxtail; assay: Test Example 4: herbicidal effect by soil treatment (Table 19, symbol G); assay type: in vivo, green foxtail (Setaria viridis); settings: amount of applied herbicide 320 g/ha
Procedure, shortened: as §1

[6] = test system: wild oat; assay: Test Example 5: herbicidal effect by foliage application, plastic box (Table 20, symbol I); assay type: in vivo, wild oat (Avena fatua); settings: foliage application, 320 g/ha, three weeks after application
Procedure, shortened: as §2

[7] = test system: barnyard grass; assay: Test Example 5: herbicidal effect by foliage application, plastic box (Table 20, symbol H); assay type: in vivo, barnyard grass (Echinochloa crus-galli); settings: foliage application, 320 g/ha, three weeks after application
Procedure, shortened: as §2

[8] = test system: redroot pigweed; assay: Test Example 4: herbicidal effect by soil treatment (Table 19, symbol N); assay type: in vivo, redroot pigweed (Amaranthus retroflexus); settings: amount of applied herbicide 320 g/ha
Procedure, shortened: as §1

[9] = test system: southern crabgrass; assay: Test Example 5: herbicidal effect by foliage application, plastic box (Table 20, symbol F); assay type: in vivo, southern crabgrass (Digitaria ciliaris); settings: foliage application, 320 g/ha, three weeks after application
Procedure, shortened: as §2

[10] = test system: barnyard grass; assay: Test Example 3: herbicidal effect by foliage application, Wagner pot (Table 18, symbol H); assay type: in vivo, barnyard grass (Echinochloa crus-galli)
Procedure, shortened: (§3)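 Plants were sown in alluvial soil held under 0.1–0.5 cm standing water and grown 14 days in a greenhouse at 25–30 °C. An emulsifiable formulation, water-diluted to the set dose, was then sprayed onto the foliage, and effects were scored three weeks later using previously defined criteria.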

[11] = test system: windgrass; assay: Test Example 5: herbicidal effect by foliage application, plastic box (Table 20, symbol L); assay type: in vivo, windgrass (Apera spica-venti); settings: foliage application, 320 g/ha, three weeks after application
Procedure, shortened: as §2

[12] = test system: velvetleaf; assay: Test Example 4: herbicidal effect by soil treatment (Table 19, symbol M); assay type: in vivo, velvetleaf (Abutilon theophrasti); settings: amount of applied herbicide 320 g/ha
Procedure, shortened: as §1

[13] = test system: southern crabgrass; assay: Test Example 4: herbicidal effect by soil treatment (Table 19, symbol F); assay type: in vivo, southern crabgrass (Digitaria ciliaris); settings: amount of applied herbicide 320 g/ha
Procedure, shortened: as §1

[14] = test system: velvetleaf; assay: Test Example 5: herbicidal effect by foliage application, plastic box (Table 20, symbol M); assay type: in vivo, velvetleaf (Abutilon theophrasti); settings: foliage application, 320 g/ha, three weeks after application
Procedure, shortened: as §2

[15] = test system: Italian ryegrass; assay: Test Example 5: herbicidal effect by foliage application, plastic box (Table 20, symbol K); assay type: in vivo, Italian ryegrass (Lolium multiflorum); settings: foliage application, 320 g/ha, three weeks after application
Procedure, shortened: as §2

[16] = test system: rice flat sedge; assay: Test Example 3: herbicidal effect by foliage application, Wagner pot (Table 18, symbol E); assay type: in vivo, rice flat sedge (Cyperus iria)
Procedure, shortened: as §3

[17] = test system: windgrass; assay: Test Example 4: herbicidal effect by soil treatment (Table 19, symbol L); assay type: in vivo, windgrass (Apera spica-venti); settings: amount of applied herbicide 320 g/ha
Procedure, shortened: as §1

[18] = test system: false cleavers; assay: Test Example 4: herbicidal effect by soil treatment (Table 19, symbol Q); assay type: in vivo, false cleavers (Galium spurium); settings: amount of applied herbicide 320 g/ha
Excerpt: [Test Example 4] Herbicidal Effect Test by Soil Treatment
Sterilized diluvial soil was placed in a plastic box having a length of 21 cm, a width of 13 cm, and a depth of 7 cm. The seeds of each of southern crabgrass, green foxtail, barnyard grass, wild oat, blackgrass, Italian ryegrass, windgrass, velvetleaf, redroot pigweed, lambsquarters, chickweed, false cleavers, persian speedwell, corn, soybean, rice, wheat, beet, and rapeseed were sowed in a spot-like manner and covered with the soil having a thickness of about 1.5 cm. Subsequently, the emulsion agent of the compound of the present invention prepared according to Formulation Example 2 was diluted with water so as to achieve a predetermined herbicide amount, and the diluted emulsion agent was uniformly applied to the surface of the soil with a small-sized spray. The plastic box was placed in a greenhouse at 25° C. to 30° C. for growth of the plants. Three weeks after the herbicide application, the effect of the herbicide on each plant was evaluated according to the criteria of Test Example 1.

[19] = test system: blackgrass; assay: Test Example 5: herbicidal effect by foliage application, plastic box (Table 20, symbol J); assay type: in vivo, blackgrass (Alopecurus myosuroides); settings: foliage application, 320 g/ha, three weeks after application
Procedure, shortened: as §2

[20] = test system: blackgrass; assay: Test Example 4: herbicidal effect by soil treatment (Table 19, symbol J); assay type: in vivo, blackgrass (Alopecurus myosuroides); settings: amount of applied herbicide 320 g/ha
Procedure, shortened: as §1

[21] = test system: Chinese sprangletop; assay: Test Example 3: herbicidal effect by foliage application, Wagner pot (Table 18, symbol D); assay type: in vivo, chinese sprangletop (Leptochloa chinensis)
Procedure, shortened: as §3

[22] = test system: lambsquarters; assay: Test Example 5: herbicidal effect by foliage application, plastic box (Table 20, symbol O); assay type: in vivo, lambsquarters (Chenopodium album); settings: foliage application, 320 g/ha, three weeks after application
Procedure, shortened: as §2

[23] = test system: Italian ryegrass; assay: Test Example 4: herbicidal effect by soil treatment (Table 19, symbol K); assay type: in vivo, Italian ryegrass (Lolium multiflorum); settings: amount of applied herbicide 320 g/ha
Procedure, shortened: as §1

[24] = test system: green foxtail; assay: Test Example 5: herbicidal effect by foliage application, plastic box (Table 20, symbol G); assay type: in vivo, green foxtail (Setaria viridis); settings: foliage application, 320 g/ha, three weeks after application
Procedure, shortened: as §2

[25] = test system: Japanese bulrush; assay: Test Example 1: herbicidal activity, application before weed generation under submerged conditions (Table 16, symbol B); assay type: in vivo, Japanese bulrush (Schoenoplectus juncoides); settings: 320 g/ha applied herbicide
Procedure, shortened: (§4)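 Emulsion formulation, water-diluted to set dose, was put onto the flooded surface (4 cm depth, alluvial soil) the same day weeds were sown and 2.5-leaf rice transplanted. After 3 weeks at 25-30 °C under glass, each species was rated 0 (≤5% kill) to 5 (≥90% kill).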

[26] = test system: oval-leafed pondweed; assay: Test Example 2: herbicidal activity, application during weed generation under submerged conditions (Table 17, symbol C); assay type: in vivo, oval-leafed pondweed (Monochoria vaginalis); settings: AAH 320 g/ha; application during weed generation, submerged conditions
Procedure, shortened: (§5)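 Herbicide emulsion, diluted with water to the chosen amount, is applied onto 4 cm floodwater over alluvial soil where the weeds were co-sown and raised at 25–30° C. Application timing: 1–2 leaves. Assessment: three weeks afterwards.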

[27] = test system: oval-leafed pondweed; assay: Test Example 1: herbicidal activity, application before weed generation under submerged conditions (Table 16, symbol C); assay type: in vivo, oval-leafed pondweed (Monochoria vaginalis); settings: 320 g/ha applied herbicide
Procedure, shortened: as §4

[28] = test system: Japanese bulrush; assay: Test Example 2: herbicidal activity, application during weed generation under submerged conditions (Table 17, symbol B); assay type: in vivo, Japanese bulrush (Schoenoplectus juncoides); settings: AAH 320 g/ha; application during weed generation, submerged conditions
Procedure, shortened: as §5

[29] = test system: persian speedwell; assay: Test Example 4: herbicidal effect by soil treatment (Table 19, symbol R); assay type: in vivo, Persian speedwell (Veronica persica); settings: amount of applied herbicide 320 g/ha
Procedure, shortened: as §1

[30] = test system: chickweed; assay: Test Example 4: herbicidal effect by soil treatment (Table 19, symbol P); assay type: in vivo, common chickweed (Stellaria media); settings: amount of applied herbicide 320 g/ha
Procedure, shortened: as §1

[31] = test system: late watergrass; assay: Test Example 1: herbicidal activity, application before weed generation under submerged conditions (Table 16, symbol A); assay type: in vivo, late watergrass (Echinochloa oryzicola); settings: 320 g/ha applied herbicide
Procedure, shortened: as §4

[32] = test system: late watergrass; assay: Test Example 2: herbicidal activity, application during weed generation under submerged conditions (Table 17, symbol A); assay type: in vivo, late watergrass (Echinochloa oryzicola); settings: AAH 320 g/ha; application during weed generation, submerged conditions
Procedure, shortened: as §5

[33] = amount of applied herbicide 320 g/ha

Cc1nn(C)c(=O)c(-c2c(-c3ccc(Cl)cc3)sc3cc(F)c(F)cc23)c1O [5-082]
O: lambsquarters, herbicidal effect grade [1]: 3 (Herbicidal rate of 40% or more and less than 70%) | H: barnyard grass, herbicidal effect grade [2]: 0 (Herbicidal rate of 5% or less (almost no effect)) | I: wild oat, herbicidal effect grade [3]: 0 (Herbicidal rate of 5% or less (almost no effect)) | herbicidal effect on persian speedwell (R) [4]: 5 (Herbicidal rate of 90% or more (almost completely withered)) | G: green foxtail, herbicidal effect grade [5]: 1 (Herbicidal rate of 5% or more and less than 20%) | herbicidal effect on wild oat (I) [6]: 3 (Herbicidal rate of 40% or more and less than 70%) | herbicidal effect on barnyard grass (H) [7]: 4 (Herbicidal rate of 70% or more and less than 90%) | N: redroot pigweed, herbicidal effect grade [8]: 4 (Herbicidal rate of 70% or more and less than 90%) | herbicidal effect on southern crabgrass (F) [9]: 3 (Herbicidal rate of 40% or more and less than 70%) | herbicidal effect on barnyard grass (H) ([10]; 320 g/ha): 5 (Herbicidal rate of 90% or more (almost completely withered)) | herbicidal effect on windgrass (L) [11]: 5 (Herbicidal rate of 90% or more (almost completely withered)) | M: velvetleaf, herbicidal effect grade [12]: 0 (Herbicidal rate of 5% or less (almost no effect)) | F: southern crabgrass, herbicidal effect grade [13]: 0 (Herbicidal rate of 5% or less (almost no effect)) | herbicidal effect on velvetleaf (M) [14]: 5 (Herbicidal rate of 90% or more (almost completely withered)) | herbicidal effect on Italian ryegrass (K) [15]: 5 (Herbicidal rate of 90% or more (almost completely withered)) | herbicidal effect on rice flat sedge (E) ([16]; 320 g/ha): 4 (Herbicidal rate of 70% or more and less than 90%) | L: windgrass, herbicidal effect grade [17]: 4 (Herbicidal rate of 70% or more and less than 90%) | Q: false cleavers, herbicidal effect grade [18]: 3 (Herbicidal rate of 40% or more and less than 70%) | herbicidal effect on blackgrass (J) [19]: 3 (Herbicidal rate of 40% or more and less than 70%) | J: blackgrass, herbicidal effect grade [20]: 0 (Herbicidal rate of 5% or less (almost no effect)) | herbicidal effect on Chinese sprangletop (D) ([21]; 320 g/ha): 4 (Herbicidal rate of 70% or more and less than 90%) | herbicidal effect on lambsquarters (O) [22]: 5 (Herbicidal rate of 90% or more (almost completely withered)) | K: Italian ryegrass, herbicidal effect grade [23]: 4 (Herbicidal rate of 70% or more and less than 90%) | herbicidal effect on green foxtail (G) [24]: 3 (Herbicidal rate of 40% or more and less than 70%)

CCCC(=O)Oc1c(C)nn(C)c(=O)c1-c1c(-c2ccc(C(F)(F)F)cc2F)sc2ccc(F)cc12 [2-355]
Herbicidal effect on B: Japanese bulrush (grade 0-5) [25]: 3 (Herbicidal rate of 40% or more and less than 70%) | herbicidal effect, O: lambsquarters [1]: 3 (Herbicidal rate of 40% or more and less than 70%) | herbicidal effect, H: barnyard grass [2]: 0 (Herbicidal rate of 5% or less (almost no effect)) | herbicidal effect, I: wild oat [3]: 0 (Herbicidal rate of 5% or less (almost no effect)) | herbicidal effect, G: green foxtail [5]: 0 (Herbicidal rate of 5% or less (almost no effect)) | herbicidal effect, N: redroot pigweed [8]: 0 (Herbicidal rate of 5% or less (almost no effect)) | herbicidal effect on H: barnyard grass [10, 33]: 5 (Herbicidal rate of 90% or more (almost completely withered)) | herbicidal effect, M: velvetleaf [12]: 0 (Herbicidal rate of 5% or less (almost no effect)) | herbicidal effect rating, C: oval-leafed pondweed [26]: 3 (Herbicidal rate of 40% or more and less than 70%) | herbicidal effect, F: southern crabgrass [13]: 0 (Herbicidal rate of 5% or less (almost no effect)) | Herbicidal effect on C: oval-leafed pondweed (grade 0-5) [27]: 0 (Herbicidal rate of 5% or less (almost no effect)) | herbicidal effect rating, B: Japanese bulrush [28]: 3 (Herbicidal rate of 40% or more and less than 70%) | herbicidal effect on E: rice flat sedge [16, 33]: 5 (Herbicidal rate of 90% or more (almost completely withered)) | herbicidal effect, L: windgrass [17]: 3 (Herbicidal rate of 40% or more and less than 70%) | herbicidal effect, R: persian speedwell [29]: 3 (Herbicidal rate of 40% or more and less than 70%) | herbicidal effect, J: blackgrass [20]: 0 (Herbicidal rate of 5% or less (almost no effect)) | herbicidal effect on D: Chinese sprangletop [21, 33]: 5 (Herbicidal rate of 90% or more (almost completely withered)) | herbicidal effect, P: chickweed [30]: 3 (Herbicidal rate of 40% or more and less than 70%) | Herbicidal effect on A: late watergrass (grade 0-5) [31]: 4 (Herbicidal rate of 70% or more and less than 90%) | herbicidal effect rating, A: late watergrass [32]: 3 (Herbicidal rate of 40% or more and less than 70%) | herbicidal effect, K: Italian ryegrass [23]: 4 (Herbicidal rate of 70% or more and less than 90%)
